Data from patent US20250257077A1, “BRIDGED BICYCLIC HETEROCYCLOALKYL PYRIDO-[3,4-d]PYRIDAZINE AMINE DERIVATIVES USEFUL AS NLRP3 INHIBITORS” (Ventus Therapeutics U.S., Inc., priority 2022, published 2025).
In brackets after ≈: the same amount, converted by molar mass. Read-outs that look alike come from different tables or passages of the source.

Legend:
human NLRP3 = molecular target: T1, human NLRP3 (Homo sapiens, UniProt Q96P20); experiment: Human Whole Blood (hWB) NLRP3 Assay; assay type: cell-based; details: LPS priming, ATP activation, IL-1β levels
T1 construct: Human whole blood is drawn from healthy volunteers after obtaining written informed consent; from tissue
T1 sequence (Q96P20 whole entry): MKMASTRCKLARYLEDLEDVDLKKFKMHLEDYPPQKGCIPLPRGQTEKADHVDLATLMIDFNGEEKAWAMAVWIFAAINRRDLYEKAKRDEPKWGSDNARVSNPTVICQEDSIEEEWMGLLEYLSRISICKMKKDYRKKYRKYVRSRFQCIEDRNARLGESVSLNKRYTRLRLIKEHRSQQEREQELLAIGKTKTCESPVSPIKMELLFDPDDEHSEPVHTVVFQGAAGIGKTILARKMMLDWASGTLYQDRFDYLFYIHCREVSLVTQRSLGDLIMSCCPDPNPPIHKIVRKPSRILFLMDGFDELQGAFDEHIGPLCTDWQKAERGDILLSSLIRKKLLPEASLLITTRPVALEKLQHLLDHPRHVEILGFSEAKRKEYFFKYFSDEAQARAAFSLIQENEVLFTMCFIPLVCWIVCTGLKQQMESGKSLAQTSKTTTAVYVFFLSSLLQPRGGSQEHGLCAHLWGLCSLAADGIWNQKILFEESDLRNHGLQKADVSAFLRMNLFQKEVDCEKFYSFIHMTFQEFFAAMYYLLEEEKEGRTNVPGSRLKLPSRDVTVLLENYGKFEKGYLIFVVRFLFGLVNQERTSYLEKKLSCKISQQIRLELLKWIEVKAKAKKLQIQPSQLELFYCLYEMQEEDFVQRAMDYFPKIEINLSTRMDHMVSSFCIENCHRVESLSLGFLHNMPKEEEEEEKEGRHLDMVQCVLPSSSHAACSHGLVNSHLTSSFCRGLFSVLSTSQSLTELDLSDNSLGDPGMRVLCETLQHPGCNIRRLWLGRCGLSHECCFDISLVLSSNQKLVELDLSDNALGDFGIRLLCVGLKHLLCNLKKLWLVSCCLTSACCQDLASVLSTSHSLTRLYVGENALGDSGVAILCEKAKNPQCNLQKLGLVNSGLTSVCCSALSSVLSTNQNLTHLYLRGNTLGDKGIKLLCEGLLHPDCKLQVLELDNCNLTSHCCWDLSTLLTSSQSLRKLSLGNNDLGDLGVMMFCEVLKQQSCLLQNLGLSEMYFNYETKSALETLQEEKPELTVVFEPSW
Experimental: (ii) Human Whole Blood (hWB) NLRP3 Assay
Human whole blood is drawn from healthy volunteers after obtaining written informed consent. Heparin lithium coated tubes are used to collect blood from volunteers. Blood samples are distributed on 96 well plates using 90 μl per well. Priming is performed by adding 5 μl of LPS (026: B6; Sigma L-2654) at a final concentration of 1 μg/ml for 4.5 hours in a humidified incubator with 37° C. 5% CO2. Thirty minutes prior to NLRP3 activation, 5 μl of a 20× compound solution or vehicle (2% dimethylsulfoxide (DMSO)) is added to each well and plates were incubated on a shaker (450 rpm) in a humidified incubator with 37° C., 5% CO2. Activation is then performed by adding 3.3 μl of a 31× ATP solution per well. At the end of the 30 minutes stimulation, the plates are centrifuged (800 g, 10 min, room temperature) and the plasma from each well is frozen at −80° C. IL-1β levels in the supernatant were analyzed using a mesoscale discovery assay (MSD K151TUK) according to the manufacturers’ instructions.

[1] = Mouse Hepatocyte Stability Assay; assay type: in vitro ADME; details: mouse hepatocytes, 37° C.; read-out: Hep (mouse) (t½ min)
Experimental: (§1) (v) Mouse and Human Hepatocyte Stability Assays
(§2) A hepatocyte stability assay is a laboratory-based method used to determine the metabolic stability of a compound in hepatocytes (liver cells). This assay provides valuable information about how quickly a drug is metabolized in the liver and can be used to assess its potential effectiveness and safety in drug discovery.
(§3) In the assay, cither human or mouse hepatocytes are incubated with the test compound at a controlled temperature of 37° C., for different time periods (e.g., 5, 15, 30, 60, and 120 minutes). At each time point during the incubation, samples are taken, the reaction is terminated, and the amount of test compound remaining analyzed using LC-MS/MS to monitor the disappearance of the test compound over time (Gradient). […] See, e.g., Coe et al., Methods in Pharmacology & Toxicology (2008) 151.

[2] = Brain Levels (Kp and Kpu,u); assay type: in vivo, CDI mice; details: for Kp at 24 h: mice dosed at 20 mpk PO, whole brain AUC over 24 h divided by plasma AUC; for Kp: oral, 20 mpk
Experimental: (iv) Brain Levels (Kp and Kpu,u)—NLRP3
The in vivo total brain to plasma ratio was assessed in CDI mice after oral administration of the compound. Blood was collected at several timepoints up to 24 h, and transferred into plastic micro centrifuge tubes with EDTA-K2 as anticoagulant. Blood samples were centrifuged at 4000 g for 5 minutes at 4° C., to obtain plasma, then immediately frozen and stored at −75±15° C., prior to analysis. Animals were terminally anaesthetized with a rising concentration of CO2 gas at about 1 minute. At selected timepoints, whole brains were removed from the skull, rinsed in cold PBS to remove blood, dried with clean gauze, then frozen in liquid nitrogen and kept at −75±15° C. before analysis. At the time of analysis, brain samples were homogenized with PBS by tissue weight (g) to PBS volume (mL) ratio 1:3.
Plasma and brain drug levels were quantified by LC/MS/MS on an AB Sciex Triple Quad 5500+instrument, after separation on a HALO 160 A ES-C18, 2.7 μm 2.1×50 mm column. Quantitation was performed using a calibration curve prepared in blank plasma or blank brain homogenate. The software WinNonlin (Phoenix™) was used for pharmacokinetic analysis from the concentrations versus time data, including the AUCinf and AUClast. The Kp ratio (total brain concentration over total plasma concentration) was calculated as (AUCtot,br)/(AUCtot,pl).
The unbound brain exposure was assessed as Kpuu, which is the free brain/free plasma concentration ratio (Cu,bt/Cu,pl). The Cu,br/Cu,pl ratios were obtained from in vivo total brain to plasma ratios (Ctot,br/Ctot,pl) by using in vitro determined Fu,br and Fu,pl.
Plasma protein binding and brain homogenate protein binding were measured by equilibrium dialysis in a HTDialysis plate. The dialysis membranes were soaked in ultrapure water for 60 minutes to separate strips, then in 20% ethanol for 20 minutes, finally in dialysis buffer for 20 minutes. The dialysis set up was assembled according to the manufacturer's instruction. Each cell received 150 μL of plasma or brain homogenate spiked with 1 mM of compound, and dialyzed against an equal volume of dialysis buffer (PBS). The dialysis plate was sealed and incubated in an incubator at 37° C. with 5% CO2 at 100 rpm for 6 hours. At the end of incubation, compound concentration was measured in both chambers by LC-MS/MS on a Triple Quad™ 5500 from AB Inc after separation on a XSelect Hss T3.2.5μ (2.1×30 mm) column. Free fraction (Fu) was calculated as (Peak Area Ratio buffer chamber/Peak Area Ratio plasma chamber). Kpuu=(AUCtot,br×Fu,br)/([…])
The Kpu,u was then calculated upon correcting this kp value with mouse plasma protein binding and mouse brain homogenates binding.
A Kpu,u value >0.3 is considered brain penetrant, and a Kpu,u value ≤0.3 is not considered brain penetrant. When the Kpu,u value is not determined, the Kp value may be useful as a metric of potential brain penetrance if the Kp value is >0.3.

[3] = Human Hepatocyte Stability Assay; assay type: in vitro ADME; details: human hepatocytes, 37° C.; read-out: Hep (human) (t½ min)
Experimental: as §1, §2, §3

[4] = Solubility Protocol in Phosphate Buffered Saline (PBS); assay type: physicochemical; details: for solubility at 2 h: pH 7.4, aqueous buffer
Experimental: (vi) Solubility Protocol in Phosphate Buffered Saline (PBS)
The kinetic solubility of test compounds and control compounds was measured in commercial phosphate buffered saline (PBS), pH 7.4 (Wisent, Canada).
Briefly, a stock solution (20 mM DMSO for controls, and 10 mM DMSO for test compounds) was combined with PBS buffer to reach a targeted concentration of 400 μM for controls and 200 μM for test compounds. The spiked-PBS mixtures were then agitated on a VX-2500 multi-tube vortexer (VWR) for 2 hours at room temperature (18° C.). Following agitation, the samples were filtered on a glass fiber filter (1 μm) and the eluates were diluted 400-fold with a mixture of acetonitrile:water (1:1). Solubility determination was then performed against one standard sample prepared in high organic content at the expected top concentration. The lower limit of quantification was arbitrarily set at 1 μM (400-fold dilution of the top concentration) for assay controls, and 0.5 μM for test compounds. On each experimental run, nicardipine and imipramine were assessed as reference compounds for low and high solubility, respectively. All samples were assessed in triplicate and analyzed by LC-MS/MS (using a CTC PAL autosampler, Thermo Accela UPLC, and a Thermo Quantum mass spectrometer) using electrospray ionization against standards prepared in the same matrix

[5] = CDI, mouse, brain (whole brain homogenate) relative to plasma, po, 20 mg/kg
[6] = CDI, mouse, brain (whole brain homogenate) relative to plasma, brain levels, mice
[7] = phosphate buffered saline (PBS), 18 °C, kinetic from dmso stock
[8] = CDI, mouse, brain (whole brain homogenate) relative to plasma, po, 20 mg/kg, Kp corrected with mouse plasma protein binding and mouse brain homogenates binding, 20 mpk PO, read-out: Kpu,u

6-(1-(((1R,5S,8s)-3-oxabicyclo[3.2.1]octan-8-yl)amino)pyrido[3,4-d]pyridazin-4-yl)-2-fluoro-3-methylphenol [Compound 15A-regioisomer]
IC50 (human NLRP3): 1.51 µM

Oc1cc(Cl)ccc1-c1nnc(N[C@H]2C[C@@H]3CC[C@H]2O3)c2cnccc12 (single isomer, unassigned) [Compound 3B*]
IC50 (human NLRP3): 5 µM

Oc1cc(Cl)ccc1-c1nnc(N[C@@H]2C[C@H]3CC[C@@H]2O3)c2cnccc12 (single isomer, unassigned) [Compound 3C*]
IC50 (human NLRP3): 0.27 µM
half-life [1]: 1.67 h

Oc1cc(Cl)ccc1-c1nnc(N[C@H]2C[C@H]3CC[C@@H]2O3)c2cnccc12 (single isomer, unassigned) [Compound 3D*]
IC50 (human NLRP3): 2.42 µM
half-life [1]: 0.167 h

Cc1ccc(-c2nnc(N[C@@H]3C[C@@H]4CC[C@H]3O4)c3cnccc23)c(O)c1 (single isomer, unassigned) [Compound 7A]
IC50 (human NLRP3): 0.23 µM
Kp at 24 h [2, 5]: 0.61
half-life [3]: > 8 h
half-life [1]: 0.95 h

Cc1ccc(-c2nnc(N[C@H]3C[C@@H]4CC[C@H]3O4)c3cnccc23)c(O)c1 (single isomer, unassigned) [Compound 7B]
IC50 (human NLRP3): 5.3 µM

Cc1ccc(-c2nnc(N[C@@H]3C[C@H]4CC[C@@H]3O4)c3cnccc23)c(O)c1 (single isomer, unassigned) [Compound 7C]
IC50 (human NLRP3): 0.11 µM
Kp [2, 6]: 0.61
half-life [3]: 4.67 h
half-life [1]: 0.35 h

Cc1ccc(-c2nnc(N[C@H]3C[C@H]4CC[C@@H]3O4)c3cnccc23)c(O)c1 (single isomer, unassigned) [Compound 7D]
IC50 (human NLRP3): 4.66 µM

Oc1cc(Cl)ccc1-c1nnc(N[C@@H]2C[C@@H]3C[C@H]2CO3)c2cnccc12 (single isomer, unassigned) [Compound 8A]
IC50 (human NLRP3): 0.27 µM
half-life [1]: 4.17 h

Oc1cc(Cl)ccc1-c1nnc(N[C@H]2C[C@H]3C[C@@H]2CO3)c2cnccc12 (single isomer, unassigned) [Compound 8B]
solubility kinetic at 2 h ([4]; phosphate buffered saline (PBS), 18 °C, aqueous buffer, kinetic from dmso stock, kinetic solubility, PBS pH 7.4, 2 hours at room temperature): > 300 µM
solubility at 2 h [4, 7]: > 300 µM
IC50 (human NLRP3): 0.59 µM
Kp [2, 6]: 0.35
Kpu,u [2, 8]: 0.1
Kp at 24 h [2, 5]: 0.35
Kpu,u ([2]; brain levels, unbound, mice): — 0.10
half-life [1]: 4.67 h

Oc1cc(Cl)ccc1-c1nnc(N[C@]23CCC(C2)OC3)c2cnccc12 (single isomer, unassigned) [Compound 9A]
IC50 (human NLRP3): > 50 µM

Oc1cc(Cl)ccc1-c1nnc(N[C@@]23CCC(C2)OC3)c2cnccc12 (single isomer, unassigned) [Compound 9B]
IC50 (human NLRP3): > 50 µM

Oc1cc(C(F)(F)F)ccc1-c1nnc(N[C@H]2C[C@@H]3CC[C@H]2O3)c2cnccc12 (single isomer, unassigned) [Compound 10B*]
IC50 (human NLRP3): 6.76 µM

Oc1cc(C(F)(F)F)ccc1-c1nnc(N[C@@H]2C[C@H]3CC[C@@H]2O3)c2cnccc12 (single isomer, unassigned) [Compound 10C*]
IC50 (human NLRP3): 0.81 µM
Kp [2, 6]: 0.48
Kpu,u [2, 8]: 0.21
Kp at 24 h [2, 5]: 0.48
Kpu,u ([2]; brain levels, unbound, mice): 0.21
half-life [3]: 7.83 h
half-life [1]: 2.33 h

Oc1cc(C(F)(F)F)ccc1-c1nnc(N[C@H]2C[C@H]3CC[C@@H]2O3)c2cnccc12 (single isomer, unassigned) [Compound 10D*]
IC50 (human NLRP3): 5.34 µM
half-life [3]: > 8 h
half-life [1]: 8 h

Oc1cc(Cl)ccc1-c1nnc(N[C@H]2C[C@H]3CC[C@@H](C2)O3)c2cnccc12 [Compound 1A*-r, 2-(4-(((1R,3r,5S)-8-oxabicyclo[3.2.1]octan-3-yl)amino)pyrido[3,4-d]pyridazin-1-yl)-5-chlorophenol]
Sol (PBS) ([4]; kinetic solubility, PBS pH 7.4, 2 hours at room temperature): 3.5 µM
solubility at 2 h [4, 7]: 3.5 µM (≈ 1.34 µg/mL)
IC50 (human NLRP3): 1.39 µM
Kp [2, 6]: 0.047
Kp at 24 h [2, 5]: 0.047

Cc1ccc(-c2nnc(N[C@@H]3C[C@H]4CC[C@@H](C3)O4)c3cnccc23)c(O)c1 [Compound 2B*-r, 2-(4-(((1R,3s,5S)-8-oxabicyclo[3.2.1]octan-3-yl)amino)pyrido[3,4-d]pyridazin-1-yl)-5-methylphenol]
IC50 (human NLRP3): 4.12 µM
half-life [1]: 3.67 h

Cc1ccc(-c2nnc(N[C@H]3C[C@H]4CC[C@@H](C3)O4)c3cnccc23)c(O)c1F [Compound 12A*-r, 6-(4-(((1R,3r,5S)-8-oxabicyclo[3.2.1]octan-3-yl)amino)pyrido[3,4-d]pyridazin-1-yl)-2-fluoro-3-methylphenol]
IC50 (human NLRP3): 2 µM
half-life [1]: 3.33 h

Cc1cc(O)c(-c2nnc(N[C@H]3[C@@H]4CC[C@H]3COC4)c3cnccc23)c(F)c1 [Compound 16A, 2-(4-(((1R,5S,8s)-3-oxabicyclo[3.2.1]octan-8-yl)amino)pyrido[3,4-d]pyridazin-1-yl)-3-fluoro-5-methylphenol]
IC50 (human NLRP3): 0.48 µM

Cc1cc(C)c(-c2nnc(N[C@H]3[C@@H]4CC[C@H]3COC4)c3cnccc23)c(O)c1 [Compound 17A, 2-(4-(((1R,5S,8s)-3-oxabicyclo[3.2.1]octan-8-yl)amino)pyrido[3,4-d]pyridazin-1-yl)-3,5-dimethylphenol]
IC50 (human NLRP3): 0.31 µM

N#Cc1ccc(-c2nnc(N[C@H]3[C@@H]4CC[C@H]3COC4)c3cnccc23)c(O)c1 [Compound 18A, 4-(4-(((1R,5S,8s)-3-oxabicyclo[3.2.1]octan-8-yl)amino)pyrido[3,4-d]pyridazin-1-yl)-3-hydroxybenzonitrile]
IC50 (human NLRP3): 0.32 µM
